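Method: 48-hour compound exposure of cells in 96-well plates, five concentrations, linear interpolation of endpoints. At the GI50, growth is halved.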 Activity calls are given as the source filed them. No stated cut-off is given here; in the data, active = GI50 up to about 1.1 µM and inactive = higher.
Columns and labels:
Assay in all cases: inhibition of tumour cell growth, NCI panel, 48 h
CAKI-1 = test system: CAKI-1
SF-539 = test system: SF-539
Malme-3M = test system: Malme-3M
ACHN = test system: ACHN
HCT-15 = test system: HCT-15
KM-20L2 = test system: KM-20L2
HCC 2998 = test system: HCC 2998
SN12C = test system: SN12C
RXF 393 = test system: RXF 393
CCRF-CEM = test system: CCRF-CEM
SK-MEL-5 = test system: SK-MEL-5
NCI-H460 = test system: NCI-H460
NCI-H23 = test system: NCI-H23
HL-60 = test system: HL-60
MDA-MB-231 = test system: MDA-MB-231
MDA-N = test system: MDA-N
SR = test system: SR
T47D = test system: T47D
Hs-578T = test system: Hs-578T
DU-145 = test system: DU-145

Row | SMILES | GI50 (CAKI-1) | GI50 (SF-539) | GI50 (Malme-3M) | GI50 (ACHN) | GI50 (HCT-15) [µM] | GI50 (KM-20L2) | GI50 (HCC 2998) | GI50 (SN12C) | GI50 (RXF 393) | GI50 (CCRF-CEM) | GI50 (SK-MEL-5) | GI50 (NCI-H460) | GI50 (NCI-H23) | GI50 (HL-60) | GI50 (MDA-MB-231) | GI50 (MDA-N) | GI50 (SR) | GI50 (T47D) | GI50 (Hs-578T) | GI50 (DU-145)
1 | C#CCN(Cc1ccc2nc(-c3ccccc3)c(Cl)nc2c1)c1cc(OC)c(OC)c(OC)c1 | > 100 µM (inactive) | > 100 µM (inactive) | > 100 µM (inactive) | 58.2 µM (inactive) | > 100 | > 100 µM (inactive) | > 100 µM (inactive) | > 100 µM (inactive) | 37.1 µM (inactive) | 37.2 µM (inactive) | 30.3 µM (inactive) | 46.1 µM (inactive) | > 100 µM (inactive) | 57.9 µM (inactive) |  |  |  |  |  | 
2 | CCOc1ccc(-c2oc(/C=N/NS(=O)(=O)c3ccc(C)cc3)c([N+](=O)[O-])c2-c2ccc(OCC)cc2)cc1 | 10.3 µM (inactive) | 16.1 µM (inactive) | 19.1 µM (inactive) | 10.9 µM (inactive) | 5.65 | 11.2 µM (inactive) | 14.4 µM (inactive) | 12.8 µM (inactive) | 12.3 µM (inactive) | 2.54 µM (inactive) | 6.76 µM (inactive) | 13.2 µM (inactive) | 13.5 µM (inactive) | 4.03 µM (inactive) |  |  |  |  |  | 
3 | O=C1N=NC(=O)N1c1cc(C(F)(F)F)cc(C(F)(F)F)c1 | 2.94 µM (inactive) | 4.86 µM (inactive) | 3.83 µM (inactive) | 4.04 µM (inactive) | 3.2 |  | 3.45 µM (inactive) | 3.75 µM (inactive) | 3.29 µM (inactive) | 3.69 µM (inactive) | 2.61 µM (inactive) | 3.23 µM (inactive) | 2.35 µM (inactive) | 3.61 µM (inactive) | 2.38 µM (inactive) | 4.17 µM (inactive) | 4.69 µM (inactive) | 3.61 µM (inactive) | 3.93 µM (inactive) | 5.28 µM (inactive)
4 | O=[N+]([O-])c1cccnc1NCC1(CO)CC(Cc2ccccc2)C1 (stereo not given) | > 100 µM (inactive) | > 100 µM (inactive) | > 100 µM (inactive) | > 100 µM (inactive) | > 100 |  | > 100 µM (inactive) | > 100 µM (inactive) | > 100 µM (inactive) | > 100 µM (inactive) | > 100 µM (inactive) | > 100 µM (inactive) | > 100 µM (inactive) | > 100 µM (inactive) | > 100 µM (inactive) | > 100 µM (inactive) | > 100 µM (inactive) | > 100 µM (inactive) | > 100 µM (inactive) | > 100 µM (inactive)
5 | O=C1Cc2ccccc2N1/N=C\c1ccc(O)cc1 | > 100 µM (inactive) | 95.7 µM (inactive) | > 100 µM (inactive) | 53.7 µM (inactive) | 91 | > 100 µM (inactive) | > 100 µM (inactive) | > 100 µM (inactive) |  | 11.5 µM (inactive) | 44.1 µM (inactive) | > 100 µM (inactive) | 71.1 µM (inactive) |  |  |  |  |  |  | 
6 | CN(C)CC(/C(Cc1ccccc1)=N\NC(=O)c1ccncc1)c1ccccc1 (stereo not given) | 44.3 µM (inactive) | 43.7 µM (inactive) | 28.8 µM (inactive) | 27.5 µM (inactive) |  | 27 µM (inactive) | 39.1 µM (inactive) | 46.2 µM (inactive) | 28.7 µM (inactive) | 17.2 µM (inactive) | 19 µM (inactive) |  | 46.8 µM (inactive) | 4.17 µM (inactive) |  |  |  |  |  | 
7 | CCOC(=O)N/N=C(/N)c1cccc(Br)c1 | > 100 µM (inactive) | > 100 µM (inactive) | > 100 µM (inactive) | > 100 µM (inactive) | > 100 |  | > 100 µM (inactive) | > 100 µM (inactive) | > 100 µM (inactive) | > 100 µM (inactive) | > 100 µM (inactive) | > 100 µM (inactive) | > 100 µM (inactive) | > 100 µM (inactive) | > 100 µM (inactive) | > 100 µM (inactive) | > 100 µM (inactive) | > 100 µM (inactive) | > 100 µM (inactive) | > 100 µM (inactive)
8 | COc1c(Br)cc(Br)c(OC)c1-c1[nH]c(Br)c(Br)c1Br | 2.52 µM (inactive) | 9.98 µM (inactive) | 3.74 µM (inactive) | 4.78 µM (inactive) | 4.28 | 8.87 µM (inactive) | 6.76 µM (inactive) | 5.9 µM (inactive) | 1.36 µM (inactive) | 4.34 µM (inactive) | 6.55 µM (inactive) | 9.48 µM (inactive) | 2.98 µM (inactive) | 6.76 µM (inactive) |  |  |  |  |  | 
9 | CNc1nc(N)cc(O)n1 | > 100 µM (inactive) |  | > 100 µM (inactive) | > 100 µM (inactive) | > 100 | > 100 µM (inactive) | > 100 µM (inactive) | > 100 µM (inactive) |  | > 100 µM (inactive) | > 100 µM (inactive) | > 100 µM (inactive) | > 100 µM (inactive) | > 100 µM (inactive) |  |  |  |  |  | 

Reference: ChEMBL document CHEMBL1201862, “PubChem BioAssay data set” (2004)
